Results as given in paper PMC6476888, “Design and synthesis of anticancer 1-hydroxynaphthalene-2-carboxanilides with a p53 independent mechanism of action” (Scientific Reports, 2019).

Columns and labels:
Format in all cases: cell-based, human
HCT116 cells = test: AO/EB staining apoptosis assay; conditions: HCT116 p53^+/+ and p53^−/−, IC50 concentration
Method: Three compounds with a distinct activity were selected for further tests. […] The apoptosis of the cells that were treated with the active compounds was confirmed using the Acridine Orange (AO)/Ethidium Bromide (EB) staining test[70] (Fig. 5).
The dual acridine orange/ethidium bromide (AO/EB) staining method was used for the morphological analysis of apoptosis. The cells were seeded on coverslips at a density of 8·10^5 cells/slide and incubated at 37 °C for 48 h. Then, the medium was removed and solutions of 5 s, 5 u, 7 f and DOX at the IC50 concentration were added. After 24 h, the cells were washed with PBS, and then the cells were incubated in a staining solution (100 μg/mL AO and 100 μg/mL EB in PBS) (Sigma-Aldrich, St. Louis, MO, USA) for 3–4 min. After staining, the coverslips were washed with PBS and fixed with 3.7% paraformaldehyde for 15 min. Observations and photography were performed with a Nikon Eclipse Ni-U fluorescent microscope equipped with the sets of filters for AO and EB (excitation filter 450–490, barrier filter BA520).

HCT116^−/− = test: Antiproliferative assay (MTS, 72 h) on HCT116 with p53 deletion; conditions: for IC50: Homo sapiens, HCT-116, MTS, 72 h incubation
[1] = system: p53/p21 system in the HCT116 cells; test: Western blot of p53/p21 activation
Method: Further exploration of the cell death model was performed by a western blot analysis of protein activation in response to incubation with the tested compound (Figs 6, 7). […] The proapoptotic activation of the p53/p21 system was noticeable after the first 12 hours and then became stronger after 24 h. This effect was not observed in the case of the p53 null cells, which were unable to synthesize this protein.
The HCT116 cells were seeded in 3-cm Petri dishes (Nunc) at a density of 0.5·10^6 cells/well and incubated overnight. […] The cells were harvested by trypsinization and washed with cold PBS. Next, the cells were centrifuged and suspended in an RIPA buffer (Thermo-Fisher Scientific) containing Halt Protease Inhibitor Cocktail (Thermo-Fisher Scientific), Halt Phosphatase Inhibitor Cocktail (Thermo-Fisher Scientific) along with 0.5 M EDTA and lysed for 20 min on ice. Then, the lysates were sonicated, centrifuged at 10,000 rpm for 10 min at 4 °C and the supernatants were collected for further analysis. The protein concentration was determined using a Micro BCA™ Protein Assay Kit (Thermo-Fisher Scientific, Waltham, MA, USA c) according to the manufacturer’s instructions. Equal amounts of the proteins (20 μg) were electrophoresed on SDS-Page gels and transferred onto nitrocellulose membranes. The membranes were blocked in 5% non-fat milk prepared in PBS containing 0.1% Tween-20 (TPBS) for 1 h. After blocking, the membranes were incubated with specific primary antibodies: p21^Waf1/Cip1, p53, cytochrome c, caspase-8, caspase-9, AIF, PARP, GAPDH and β-Actin overnight at 4 °C, and then washed and incubated with horseradish peroxidase (HRP)-conjugated secondary antibodies for 1 h at room temperature. All of the antibodies were purchased from CellSignaling (Danvers, MA, USA) and were diluted 1:1000 in 5% milk in TPBS. Finally, the membranes were washed and incubated with a SuperSignal™ West Pico Chemiluminescent Substrate (Thermo-Fisher Scientific). The chemiluminescence signals were captured using a ChemiDoc™ XRS+ System (Bio-Rad Laboratories, Hercules, CA, USA). The experiments were performed at least three times. Densitometric analysis was performed using ImageJ 1.41 software (Wayne Rasband, National Institutes of Health, USA).

[2] = p53 null cells, after the first 12 hours

SMILES | apoptosis (AO/EB staining) (HCT116 cells) | IC50 (HCT116^−/−) | p21 protein amount [1, 2] | p21 protein amount ([1]; either of the lines tested) | selectivity towards the p53 null cells (HCT116 p53^−/− vs wild type) (HCT116^−/−)
O=C(Nc1cc(C(F)(F)F)cc(C(F)(F)F)c1Cl)c1ccc2ccccc2c1O [5u] | early and late apoptotic cells | 2720 ± 630 nM | small, insignificant increase | – | –
O=C(Nc1cc(C(F)(F)F)cc(C(F)(F)F)c1)c1ccc2ccccc2c1O [7f] | early and late apoptotic cells | 350 ± 80 nM | – | did not increase p21 | –
O=C(Nc1ccc(F)c(Cl)c1)c1ccc2ccccc2c1O [5s] | early and late apoptotic cells | 830 ± 310 nM | small, insignificant increase | – | more than eight times more toxic
